Values quoted from earlier work, collected in patent publication US20050004106A1, “Combinations of GABA modulators and anticonvulsants, and atypical antipsychotics” (Pfizer Inc, priority 2003, published 2005).

Legend:
[1] = in vivo

## Cl.O.O=C1Cc2cc(CCN3CCN(c4nsc5ccccc45)CC3)c(Cl)cc2N1 [ziprasidone, 5-[2-[4-(1,2-benzisothiazol-3-yl)piperazin-1-yl]ethyl]-6-chloroindolin-2-one hydrochloride hydrate]
[1]
  half-life: 6 to 7 h
other
  protein binding: extensive
